According to patent EP1948196B1, “USE OF TETRAORGANOSILICON COMPOUNDS” (Salama, Zoser B., priority 2005, dated 2007):
Numbered stars: 1 amine (or outer) side, 2 acyl side, 3 side chain; on linkers, the order of the positions; unused ones are H or OH. Bridge positions count the residues as written; N and C are the ends. Peptide text beside a SMILES is read from it. I, II: the chains in the order shown. X2 = c1ccc([Si](O[*:1])(O[*:2])c2ccccc2)cc1; X1 = C[Si](C)(O[*:1])O[*:2]

Columns and labels:
Medulloblastome = assay: Effect on medulloblastomas
Entero-Viren = assay: Antiviral effect; details: in particular as vesicles holding antisense constructs
Hepatitis C-Viren = assay: Antiviral effect; details: in particular as vesicles holding antisense constructs
Seminome = assay: Effect on seminomas
[1] = test system: Osteosarkom bzw. Adenokarzinome; assay: Effect in mice on osteosarcoma or adenocarcinoma; design: species or system Mäuse; details: in vivo
[2] = test system: Zellen des Basatzellkarzinoms; assay: Inhibition of cell multiplication; type: cell-based
Medulloblastom-Zellen = assay: Inhibition of cell multiplication; type: cell-based
Sendai-Viren = assay: Antiviral effect; details: in particular as vesicles holding antisense constructs
Hepatitis B-Viren = assay: Antiviral effect; details: in particular as vesicles holding antisense constructs
Basalzellkarzinome = assay: Effect on basal cell carcinomas
Angiosarkome = assay: Effect on angiosarcomas
Adenokarzinome = assay: Effect on adenocarcinomas
Adenokarzinom-Gewebe = assay: Effect against adenocarcinoma tissue, inhibition of metastasis
Hepatitis-Viren = assay: Antiviral effect; details: in particular as vesicles holding antisense constructs
Lymphome = assay: Effect on lymphomas

C[Si](C)(OC(=O)CNC(=O)CNC(=O)CNC(=O)CNC(=O)CN)OC(=O)CNC(=O)CNC(=O)CNC(=O)CNC(=O)CN [Dimethyl bis(pentaglycyl)silylester]
Wirkung gegen Medulloblastome (Medulloblastome): zeigen eine Wirkung | Wirkung gegen Entero-Viren (Entero-Viren): zeigen eine Wirkung

C[Si](C)(OC(=O)CNC(=O)CNC(=O)CN)OC(=O)CNC(=O)CNC(=O)CN [Dimethyl bis(triglycyl)silylester]
Wirkung gegen Medulloblastome (Medulloblastome): zeigen eine Wirkung | Wirkung gegen Entero-Viren (Entero-Viren): zeigen eine Wirkung

CC/C=C\C/C=C\C/C=C\CCCCCCCC(=O)O[Si](CC)(CC)OC(=O)CCCCCCC/C=C\C/C=C\C/C=C\CC [Di(linolenoylooxy)diethylsilan]
Wirkung gegen Hepatitis C-Viren (Hepatitis C-Viren): zeigen eine Wirkung | Wirkung auf Seminome (Seminome): zeigen eine Wirkung

C[C@H](N)C(=O)N[C@@H](C)C(=O)N[C@@H](C)C(=O)N[C@@H](C)C(=O)N[C@@H](C)C(=O)O[Si](C)(C)OC(=O)[C@H](C)NC(=O)[C@H](C)NC(=O)[C@H](C)NC(=O)[C@H](C)NC(=O)[C@H](C)N [Dimethyl bis(pentaalanyl)silylester]
Wirkung auf Mäuse, Osteosarkom bzw. Adenokarzinome [1]: zeigen eine Wirkung | Vermehrung von Zellen des Basatzellkarzinoms [2]: inhibieren | Vermehrung von Medulloblastom-Zellen (Medulloblastom-Zellen): inhibieren

CCCCCCCCCCCCCCCCC(=O)O[Si](CCC)(CCC)OC(=O)CCCCCCCCCCCCCCCC [Di(heptadecanoyloxy)dipropylsilan]
Wirkung gegen Sendai-Viren (Sendai-Viren): zeigen eine Wirkung | Wirkung gegen Hepatitis B-Viren (Hepatitis B-Viren): zeigen eine Wirkung | Wirkung auf Basalzellkarzinome (Basalzellkarzinome): zeigen eine Wirkung | Wirkung gegen Angiosarkome (Angiosarkome): zeigen eine Wirkung

CCCCC/C=C\C/C=C\CCCCCCCC(=O)O[Si](CCC)(CCC)OC(=O)CCCCCCC/C=C\C/C=C\CCCCC [Di(linoylooxy)dipropylsilan]
Wirkung gegen Hepatitis C-Viren (Hepatitis C-Viren): zeigen eine Wirkung | Wirkung auf Seminome (Seminome): zeigen eine Wirkung

C[C@H](N)C(=O)N[C@@H](C)C(=O)N[C@@H](C)C(=O)O[Si](C)(C)OC(=O)[C@H](C)NC(=O)[C@H](C)NC(=O)[C@H](C)N [Dimethyl bis(trialanyl)sillylester]
Wirkung auf Mäuse, Osteosarkom bzw. Adenokarzinome [1]: zeigen eine Wirkung | Vermehrung von Zellen des Basatzellkarzinoms [2]: inhibieren | Vermehrung von Medulloblastom-Zellen (Medulloblastom-Zellen): inhibieren

CCCCCCCC(=O)O[Si](OC(=O)CCCCCCC)(C(C)C)C(C)C [Di(octanoyloxy)diisopropylsilan]
Wirkung gegen Sendai-Viren (Sendai-Viren): zeigen eine Wirkung | Wirkung gegen Hepatitis B-Viren (Hepatitis B-Viren): zeigen eine Wirkung | Wirkung auf Basalzellkarzinome (Basalzellkarzinome): zeigen eine Wirkung | Wirkung gegen Angiosarkome (Angiosarkome): zeigen eine Wirkung

CC(C)[C@H](N)C(=O)N[C@H](C(=O)N[C@H](C(=O)N[C@H](C(=O)N[C@H](C(=O)N[C@H](C(=O)N[C@H](C(=O)N[C@H](C(=O)O[Si](C)(C)OC(=O)[C@@H](NC(=O)[C@@H](NC(=O)[C@@H](NC(=O)[C@@H](NC(=O)[C@@H](NC(=O)[C@@H](NC(=O)[C@@H](NC(=O)[C@@H](N)C(C)C)C(C)C)C(C)C)C(C)C)C(C)C)C(C)C)C(C)C)C(C)C)C(C)C)C(C)C)C(C)C)C(C)C)C(C)C)C(C)C)C(C)C [Dimethyl bis(octavalyl)silylester] (I: H-VVVVVVVV / II: H-VVVVVVVV; linker I:C-II:C via X1)
Wirkung auf Adenokarzinome (Adenokarzinome): zeigen eine Wirkung

CC(C)[C@H](N)C(=O)N[C@H](C(=O)N[C@H](C(=O)O[Si](C)(C)OC(=O)[C@@H](NC(=O)[C@@H](NC(=O)[C@@H](N)C(C)C)C(C)C)C(C)C)C(C)C)C(C)C [Dimethyl bis(trivalyl)silylester]
Wirkung auf Adenokarzinome (Adenokarzinome): zeigen eine Wirkung

CCCCCCCCCCCCCC(=O)O[Si](OC(=O)CCCCCCCCCCCCC)(C(C)C)C(C)C [Di(tetradecanoyloxy)diisopropylsilan]
Wirkung gegen Adenokarzinom-Gewebe, insbesondere inhibierende Wirkung auf die Metastasierung (Adenokarzinom-Gewebe): haben eine Wirkung

C[C@H](N)C(=O)N[C@@H](C)C(=O)N[C@@H](C)C(=O)N[C@@H](C)C(=O)N[C@@H](C)C(=O)N[C@@H](C)C(=O)N[C@@H](C)C(=O)N[C@@H](C)C(=O)N[C@@H](C)C(=O)O[Si](OC(=O)[C@H](C)NC(=O)[C@H](C)NC(=O)[C@H](C)NC(=O)[C@H](C)NC(=O)[C@H](C)NC(=O)[C@H](C)NC(=O)[C@H](C)NC(=O)[C@H](C)NC(=O)[C@H](C)N)(c1ccccc1)c1ccccc1 [Diphenyl bis(nonaalanyl)silylester] (I: H-AAAAAAAAA / II: H-AAAAAAAAA; linker I:C-II:C via X2)
Wirkung gegen Hepatitis-Viren (Hepatitis-Viren): zeigen eine Wirkung | Wirkung auf Lymphome (Lymphome): zeigen eine Wirkung

CCCCCCCC/C=C\CCCCCCCC(=O)O[Si](CC)(CC)OC(=O)CCCCCCC/C=C\CCCCCCCC [Di (oleylooxy)diethylsilan]
Wirkung gegen Hepatitis C-Viren (Hepatitis C-Viren): zeigen eine Wirkung | Wirkung auf Seminome (Seminome): zeigen eine Wirkung

CC(C)[C@H](N)C(=O)N[C@H](C(=O)N[C@H](C(=O)N[C@H](C(=O)O[Si](C)(C)OC(=O)[C@@H](NC(=O)[C@@H](NC(=O)[C@@H](NC(=O)[C@@H](N)C(C)C)C(C)C)C(C)C)C(C)C)C(C)C)C(C)C)C(C)C [Dimethyl bis(tetravalyl)silylester]
Wirkung auf Adenokarzinome (Adenokarzinome): zeigen eine Wirkung

C[C@H](N)C(=O)N[C@@H](C)C(=O)N[C@@H](C)C(=O)N[C@@H](C)C(=O)N[C@@H](C)C(=O)N[C@@H](C)C(=O)N[C@@H](C)C(=O)O[Si](OC(=O)[C@H](C)NC(=O)[C@H](C)NC(=O)[C@H](C)NC(=O)[C@H](C)NC(=O)[C@H](C)NC(=O)[C@H](C)NC(=O)[C@H](C)N)(c1ccccc1)c1ccccc1 [Diphenyl bis(heptaalanyl)silylester] (I: H-AAAAAAA / II: H-AAAAAAA; linker I:C-II:C via X2)
Wirkung gegen Hepatitis-Viren (Hepatitis-Viren): zeigen eine Wirkung | Wirkung auf Lymphome (Lymphome): zeigen eine Wirkung

C[C@H](N)C(=O)N[C@@H](C)C(=O)N[C@@H](C)C(=O)N[C@@H](C)C(=O)O[Si](C)(C)OC(=O)[C@H](C)NC(=O)[C@H](C)NC(=O)[C@H](C)NC(=O)[C@H](C)N [Dimethyl bis(tetraalanyl)silylester]
Wirkung auf Mäuse, Osteosarkom bzw. Adenokarzinome [1]: zeigen eine Wirkung | Vermehrung von Zellen des Basatzellkarzinoms [2]: inhibieren | Vermehrung von Medulloblastom-Zellen (Medulloblastom-Zellen): inhibieren

CCCCCCCCCCCCC(=O)O[Si](OC(=O)CCCCCCCCCCCC)(C(C)C)C(C)C [Di(tridecanoyloxy)diisopropylsilan]
Wirkung gegen Adenokarzinom-Gewebe, insbesondere inhibierende Wirkung auf die Metastasierung (Adenokarzinom-Gewebe): haben eine Wirkung

CCCCCCCCCCCCCCCCCC(=O)O[Si](CCC)(CCC)OC(=O)CCCCCCCCCCCCCCCCC [Di(octadecanoyloxy)dipropylsilan]
Wirkung gegen Sendai-Viren (Sendai-Viren): zeigen eine Wirkung | Wirkung gegen Hepatitis B-Viren (Hepatitis B-Viren): zeigen eine Wirkung | Wirkung auf Basalzellkarzinome (Basalzellkarzinome): zeigen eine Wirkung | Wirkung gegen Angiosarkome (Angiosarkome): zeigen eine Wirkung

C[C@H](N)C(=O)N[C@@H](C)C(=O)N[C@@H](C)C(=O)N[C@@H](C)C(=O)N[C@@H](C)C(=O)N[C@@H](C)C(=O)N[C@@H](C)C(=O)N[C@@H](C)C(=O)O[Si](C)(C)OC(=O)[C@H](C)NC(=O)[C@H](C)NC(=O)[C@H](C)NC(=O)[C@H](C)NC(=O)[C@H](C)NC(=O)[C@H](C)NC(=O)[C@H](C)NC(=O)[C@H](C)N [Dimethyl bis(octaalanyl)silylester] (I: H-AAAAAAAA / II: H-AAAAAAAA; linker I:C-II:C via X1)
Wirkung auf Mäuse, Osteosarkom bzw. Adenokarzinome [1]: zeigen eine Wirkung | Vermehrung von Zellen des Basatzellkarzinoms [2]: inhibieren | Vermehrung von Medulloblastom-Zellen (Medulloblastom-Zellen): inhibieren

CCCCCCCCCCCCCCCC(=O)O[Si](OC(=O)CCCCCCCCCCCCCCC)(C(C)C)C(C)C [Di(hexadecanoyloxy)diisopropylsilan]
Wirkung gegen Adenokarzinom-Gewebe, insbesondere inhibierende Wirkung auf die Metastasierung (Adenokarzinom-Gewebe): haben eine Wirkung

CC/C=C\C/C=C\C/C=C\CCCCCCCC(=O)O[Si](CCC)(CCC)OC(=O)CCCCCCC/C=C\C/C=C\C/C=C\CC [Di(linolenoylooxy)dipropylsilan]
Wirkung gegen Hepatitis C-Viren (Hepatitis C-Viren): zeigen eine Wirkung | Wirkung auf Seminome (Seminome): zeigen eine Wirkung

CC(C)[C@H](N)C(=O)N[C@H](C(=O)N[C@H](C(=O)N[C@H](C(=O)N[C@H](C(=O)O[Si](C)(C)OC(=O)[C@@H](NC(=O)[C@@H](NC(=O)[C@@H](NC(=O)[C@@H](NC(=O)[C@@H](N)C(C)C)C(C)C)C(C)C)C(C)C)C(C)C)C(C)C)C(C)C)C(C)C)C(C)C [Dimethyl bis(pentavalyl)silylester]
Wirkung auf Adenokarzinome (Adenokarzinome): zeigen eine Wirkung

CCCCCCCCCCCC(=O)O[Si](OC(=O)CCCCCCCCCCC)(C(C)C)C(C)C [Di(dodecanoyloxy)diisopropylsilan]
Wirkung gegen Adenokarzinom-Gewebe, insbesondere inhibierende Wirkung auf die Metastasierung (Adenokarzinom-Gewebe): haben eine Wirkung

CCCCCCCCCCCCCCCC(=O)O[Si](CCC)(CCC)OC(=O)CCCCCCCCCCCCCCC [Di(hexadecanoyloxy)dipropylsilan]
Wirkung gegen Sendai-Viren (Sendai-Viren): zeigen eine Wirkung | Wirkung gegen Hepatitis B-Viren (Hepatitis B-Viren): zeigen eine Wirkung | Wirkung auf Basalzellkarzinome (Basalzellkarzinome): zeigen eine Wirkung | Wirkung gegen Angiosarkome (Angiosarkome): zeigen eine Wirkung

CCCCCCCCCCCCCCC(=O)O[Si](OC(=O)CCCCCCCCCCCCCC)(C(C)C)C(C)C [Di(pentadecanoyloxydiisopropylsilan]
Wirkung gegen Adenokarzinom-Gewebe, insbesondere inhibierende Wirkung auf die Metastasierung (Adenokarzinom-Gewebe): haben eine Wirkung
